Assay results published in ChEMBL document CHEMBL1201862, “PubChem BioAssay data set” (2004).
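Cultured in 96-well plates, cells were exposed to test compound for 48 hours across five concentrations. GI50: concentration for 50% inhibition of growth.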 Activity calls are given as the source filed them. No stated cut-off is given here; in the data, active = GI50 up to about 1.1 µM and inactive = higher.

Columns and labels:
Assay in all cases: NCI-60 cell line screen, 48 h
[1] = system: HCT-15
[2] = system: SF-539
[3] = system: XF498
[4] = system: UO-31
[5] = system: HOP-92
[6] = system: TK-10
[7] = system: SF-268
[8] = system: KM12
[9] = system: SK-MEL-2
[10] = system: NCI-H522
[11] = system: HCC 2998
[12] = system: OVCAR-3
[13] = system: HT-29
[14] = system: NCI-H23
[15] = system: RXF 393
[16] = system: IGROV-1
[17] = system: SNB-75
[18] = system: CAKI-1
[19] = system: U-251
[20] = system: A549
[21] = system: SNB-78
[22] = system: M14
[23] = system: SNB-19
[24] = system: OVCAR-8
[25] = system: MOLT-4
[26] = system: LOX IMVI
[27] = system: HOP-62
[28] = system: EKVX
[29] = system: UACC-257
[30] = system: SF-295
[31] = system: SW-620
[32] = system: K562
[33] = system: NCI-H460
[34] = system: SK-MEL-5
[35] = system: NCI-H226
[36] = system: HL-60
[37] = system: LXFL 529
[38] = system: 786-0
[39] = system: RPMI-8226
[40] = system: Malme-3M
[41] = system: SK-MEL-28
[42] = system: OVCAR-4
[43] = system: M19-MEL
[44] = system: DLD-1
[45] = system: OVCAR-5
[46] = system: HOP-18
[47] = system: DMS-114
[48] = system: KM-20L2
[49] = system: SK-OV-3
[50] = system: ACHN
[51] = system: UACC-62
[52] = system: CCRF-CEM
[53] = system: SN12C
[54] = system: SR
[55] = system: A498
[56] = system: HCT-116

For `COc1cccc(/C=N/[N-]C(=S)Nc2ccccc2)c1[O-].O.[Zn+2]`, the GI50 [1] was 31.6 µM, the GI50 [2] was 66.4 µM (inactive) and the GI50 [3] was 23.2 µM (inactive). For the same compound, the GI50 [4] was 33.6 µM (inactive), the GI50 [5] was 73.5 µM (inactive) and the GI50 [6] was > 100 µM (inactive). For the same compound, the GI50 [7] was 47 µM (inactive), the GI50 [8] was 40.6 µM (inactive) and the GI50 [9] was 63.7 µM (inactive). The GI50 [10] was 19.7 µM (inactive), the GI50 [11] was > 100 µM (inactive) and the GI50 [12] was 40.5 µM (inactive). For the same compound, the GI50 [13] was 72.4 µM (inactive), the GI50 [14] was 37.7 µM (inactive) and the GI50 [15] was 35.9 µM (inactive). The GI50 [16] was 52 µM (inactive), the GI50 [17] was 43.7 µM (inactive) and the GI50 [18] was 87.7 µM (inactive). For the same compound, the GI50 [19] was 60.4 µM (inactive), the GI50 [20] was 34.1 µM (inactive) and the GI50 [21] was 40.1 µM (inactive). For the same compound, the GI50 [22] was 44.5 µM (inactive), the GI50 [23] was 66.1 µM (inactive) and the GI50 [24] was 35.5 µM (inactive). For the same compound, the GI50 [25] was 28.6 µM (inactive), the GI50 [26] was 53.7 µM (inactive) and the GI50 [27] was 17 µM (inactive). The GI50 [28] was 49.1 µM (inactive), the GI50 [29] was 55.5 µM (inactive) and the GI50 [30] was 76.7 µM (inactive). The GI50 [31] was 56.4 µM (inactive), the GI50 [32] was 42 µM (inactive) and the GI50 [33] was 50.9 µM (inactive). For the same compound, the GI50 [34] was 61.1 µM (inactive), the GI50 [35] was 37.8 µM (inactive) and the GI50 [36] was 28.8 µM (inactive). The GI50 [37] was 68.5 µM (inactive), the GI50 [38] was > 100 µM (inactive) and the GI50 [39] was 66.8 µM (inactive). The GI50 [40] was 86.5 µM (inactive), the GI50 [41] was > 100 µM (inactive) and the GI50 [42] was 23.5 µM (inactive). For the same compound, the GI50 [43] was 60 µM (inactive), the GI50 [44] was 29 µM (inactive) and the GI50 [45] was > 100 µM (inactive). For the same compound, the GI50 [46] was > 100 µM (inactive), the GI50 [47] was 15.4 µM (inactive) and the GI50 [48] was 40.3 µM (inactive). For the same compound, the GI50 [49] was 44.4 µM (inactive), the GI50 [50] was 39.8 µM (inactive) and the GI50 [51] was 19.7 µM (inactive). For the same compound, the GI50 [52] was 29.3 µM (inactive) and the GI50 [53] was > 100 µM (inactive).

For `Cc1cc2c(cn1)C(=O)OCC2`, the GI50 [2] was > 100 µM (inactive), the GI50 [3] was > 100 µM (inactive) and the GI50 [4] was > 100 µM (inactive). The GI50 [6] was > 100 µM (inactive), the GI50 [7] was > 100 µM (inactive) and the GI50 [8] was > 100 µM (inactive). The GI50 [11] was > 100 µM (inactive), the GI50 [12] was > 100 µM (inactive) and the GI50 [13] was > 100 µM (inactive). The GI50 [14] was > 100 µM (inactive), the GI50 [15] was > 100 µM (inactive) and the GI50 [16] was > 100 µM (inactive). The GI50 [54] was > 100 µM (inactive), the GI50 [17] was > 100 µM (inactive) and the GI50 [19] was > 100 µM (inactive). The GI50 [20] was > 100 µM (inactive), the GI50 [55] was > 100 µM (inactive) and the GI50 [21] was > 100 µM (inactive). The GI50 [22] was > 100 µM (inactive), the GI50 [56] was > 100 µM (inactive) and the GI50 [23] was > 100 µM (inactive). For the same compound, the GI50 [24] was > 100 µM (inactive), the GI50 [25] was > 100 µM (inactive) and the GI50 [26] was > 100 µM (inactive). For the same compound, the GI50 [27] was > 100 µM (inactive), the GI50 [28] was > 100 µM (inactive) and the GI50 [29] was > 100 µM (inactive). For the same compound, the GI50 [30] was > 100 µM (inactive), the GI50 [31] was > 100 µM (inactive) and the GI50 [32] was > 100 µM (inactive). The GI50 [33] was > 100 µM (inactive), the GI50 [35] was > 100 µM (inactive) and the GI50 [36] was > 100 µM (inactive). The GI50 [37] was > 100 µM (inactive), the GI50 [38] was > 100 µM (inactive) and the GI50 [39] was > 100 µM (inactive). For the same compound, the GI50 [40] was > 100 µM (inactive), the GI50 [41] was > 100 µM (inactive) and the GI50 [42] was > 100 µM (inactive). For the same compound, the GI50 [43] was > 100 µM (inactive), the GI50 [44] was > 100 µM (inactive) and the GI50 [45] was > 100 µM (inactive). For the same compound, the GI50 [46] was > 100 µM (inactive), the GI50 [47] was > 100 µM (inactive) and the GI50 [48] was > 100 µM (inactive). For the same compound, the GI50 [49] was > 100 µM (inactive), the GI50 [50] was > 100 µM (inactive) and the GI50 [51] was > 100 µM (inactive). For the same compound, the GI50 [52] was > 100 µM (inactive) and the GI50 [53] was > 100 µM (inactive).
